Assays:
[1] = target: Bromodomain-containing protein 2 (Homo sapiens, UniProt P25440); test: (§1) TR-FRET In-Vitro Binding Assays for BRD2, BRD3, and BRD4: All assays were performed in 384 well microtiter plates. Each assay plate contained 8-point serial dilutions for 40 test compounds, plus 16 high- and 16 low controls. Liquid handling and incubation steps were done on an Innovadyne Nanodrop Express equipped with a robotic arm (Thermo CatX, Perkin Elmer/Caliper Twister II) and an incubator (Liconic STX40, Thermo Cytomat 2C450). The assay plates were prepared by addition of 50 nl per well of compound solution in 90% DMSO HummingBird nanodispenser (Zinsser Analytic). The assay was started by stepwise addition of 4.5 μl per well of bromo domain protein (50 mM HEPES, pH 7.5, 0.005% Tween20, 0.1% BSA, 50 mM NaCl, 45 nM His-Brd2(60-472) or 45 nM His-Brd3(20-477) or 45 nM His-Brd4(44-477) all proteins produced in-house) and 4.5 μl per well of peptide solution (50 mM HEPES, pH 7.5, 0.005% Tween20, 0.1% BSA, 50 mM NaCl, 60 nM acetyl-histone H4 (AcK 5, 8, 12, 16) (Biosyntan GmbH)). Reactions were incubated at 30° C. for 35 minutes. Subsequently 4.5 μl per well detection mix (50 mM HEPES, pH 7.5, 0.005% Tween20, 0.1% BSA, 50 mM NaCl, 3 nM Eu-labeled anti-His6 antibody, 21 nM streptavidin-allophycocyanin) were added. After 35 minutes incubation at 30° C., plates were measured in a Perkin Elmer EnVision multilabel reader. Concentrations causing 50% inhibition (1050) values were determined from percent inhibition values at different compound concentrations by non-linear regression analysis.
Sequence of Bromodomain-containing protein 2 (P25440 whole entry, the tested form may be a part): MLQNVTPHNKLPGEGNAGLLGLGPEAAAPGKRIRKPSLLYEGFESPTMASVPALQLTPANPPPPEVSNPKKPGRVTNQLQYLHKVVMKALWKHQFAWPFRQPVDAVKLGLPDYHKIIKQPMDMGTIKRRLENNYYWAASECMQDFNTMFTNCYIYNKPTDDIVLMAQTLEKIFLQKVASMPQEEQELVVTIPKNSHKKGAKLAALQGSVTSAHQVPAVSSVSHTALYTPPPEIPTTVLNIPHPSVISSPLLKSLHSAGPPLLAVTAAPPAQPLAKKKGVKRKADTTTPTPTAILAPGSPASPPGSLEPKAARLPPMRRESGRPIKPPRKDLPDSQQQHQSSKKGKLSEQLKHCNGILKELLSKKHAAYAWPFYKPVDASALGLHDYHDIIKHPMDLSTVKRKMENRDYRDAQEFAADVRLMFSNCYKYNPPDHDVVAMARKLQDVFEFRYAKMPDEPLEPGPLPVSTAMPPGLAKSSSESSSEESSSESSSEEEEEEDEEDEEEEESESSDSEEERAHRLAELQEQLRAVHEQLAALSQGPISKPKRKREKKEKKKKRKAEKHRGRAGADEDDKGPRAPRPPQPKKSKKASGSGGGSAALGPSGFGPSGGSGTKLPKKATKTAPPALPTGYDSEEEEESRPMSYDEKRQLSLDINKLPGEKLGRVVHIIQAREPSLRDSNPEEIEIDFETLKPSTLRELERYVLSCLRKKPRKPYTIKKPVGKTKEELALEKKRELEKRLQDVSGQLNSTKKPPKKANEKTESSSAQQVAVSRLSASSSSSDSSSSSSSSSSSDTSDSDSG

[2] = target: Bromodomain-containing protein 4 (Homo sapiens, UniProt O60885); test: as §1
CREB-binding protein = CREB-binding protein (Homo sapiens, UniProt Q92793); test: AlphaScreen In-Vitro Binding Assay for CREBBP: In order to assess bromodomain selectivity, we set up a binding assay using the bromodomain encoded by the CREBBP gene. […] Reactions were incubated at 30° C. for 35 minutes. Subsequently 4.5 μl per well detection mix (50 mM HEPES, pH 7.5, 0.005% Tween20, 0.02% BSA, 150 mM NaCl, 45 μg/ml Ni-chelate acceptor beads, 45 μg/ml streptavidin-donor beads) (Perkin Elmer)) were added. After 60 minutes incubation at room temperature, plates were measured in a Perkin Elmer EnVision multilabel reader. IC50 values were determined from percent inhibition values at different compound concentrations by non-linear regression analysis.
Sequence of CREB-binding protein (Q92793 whole entry): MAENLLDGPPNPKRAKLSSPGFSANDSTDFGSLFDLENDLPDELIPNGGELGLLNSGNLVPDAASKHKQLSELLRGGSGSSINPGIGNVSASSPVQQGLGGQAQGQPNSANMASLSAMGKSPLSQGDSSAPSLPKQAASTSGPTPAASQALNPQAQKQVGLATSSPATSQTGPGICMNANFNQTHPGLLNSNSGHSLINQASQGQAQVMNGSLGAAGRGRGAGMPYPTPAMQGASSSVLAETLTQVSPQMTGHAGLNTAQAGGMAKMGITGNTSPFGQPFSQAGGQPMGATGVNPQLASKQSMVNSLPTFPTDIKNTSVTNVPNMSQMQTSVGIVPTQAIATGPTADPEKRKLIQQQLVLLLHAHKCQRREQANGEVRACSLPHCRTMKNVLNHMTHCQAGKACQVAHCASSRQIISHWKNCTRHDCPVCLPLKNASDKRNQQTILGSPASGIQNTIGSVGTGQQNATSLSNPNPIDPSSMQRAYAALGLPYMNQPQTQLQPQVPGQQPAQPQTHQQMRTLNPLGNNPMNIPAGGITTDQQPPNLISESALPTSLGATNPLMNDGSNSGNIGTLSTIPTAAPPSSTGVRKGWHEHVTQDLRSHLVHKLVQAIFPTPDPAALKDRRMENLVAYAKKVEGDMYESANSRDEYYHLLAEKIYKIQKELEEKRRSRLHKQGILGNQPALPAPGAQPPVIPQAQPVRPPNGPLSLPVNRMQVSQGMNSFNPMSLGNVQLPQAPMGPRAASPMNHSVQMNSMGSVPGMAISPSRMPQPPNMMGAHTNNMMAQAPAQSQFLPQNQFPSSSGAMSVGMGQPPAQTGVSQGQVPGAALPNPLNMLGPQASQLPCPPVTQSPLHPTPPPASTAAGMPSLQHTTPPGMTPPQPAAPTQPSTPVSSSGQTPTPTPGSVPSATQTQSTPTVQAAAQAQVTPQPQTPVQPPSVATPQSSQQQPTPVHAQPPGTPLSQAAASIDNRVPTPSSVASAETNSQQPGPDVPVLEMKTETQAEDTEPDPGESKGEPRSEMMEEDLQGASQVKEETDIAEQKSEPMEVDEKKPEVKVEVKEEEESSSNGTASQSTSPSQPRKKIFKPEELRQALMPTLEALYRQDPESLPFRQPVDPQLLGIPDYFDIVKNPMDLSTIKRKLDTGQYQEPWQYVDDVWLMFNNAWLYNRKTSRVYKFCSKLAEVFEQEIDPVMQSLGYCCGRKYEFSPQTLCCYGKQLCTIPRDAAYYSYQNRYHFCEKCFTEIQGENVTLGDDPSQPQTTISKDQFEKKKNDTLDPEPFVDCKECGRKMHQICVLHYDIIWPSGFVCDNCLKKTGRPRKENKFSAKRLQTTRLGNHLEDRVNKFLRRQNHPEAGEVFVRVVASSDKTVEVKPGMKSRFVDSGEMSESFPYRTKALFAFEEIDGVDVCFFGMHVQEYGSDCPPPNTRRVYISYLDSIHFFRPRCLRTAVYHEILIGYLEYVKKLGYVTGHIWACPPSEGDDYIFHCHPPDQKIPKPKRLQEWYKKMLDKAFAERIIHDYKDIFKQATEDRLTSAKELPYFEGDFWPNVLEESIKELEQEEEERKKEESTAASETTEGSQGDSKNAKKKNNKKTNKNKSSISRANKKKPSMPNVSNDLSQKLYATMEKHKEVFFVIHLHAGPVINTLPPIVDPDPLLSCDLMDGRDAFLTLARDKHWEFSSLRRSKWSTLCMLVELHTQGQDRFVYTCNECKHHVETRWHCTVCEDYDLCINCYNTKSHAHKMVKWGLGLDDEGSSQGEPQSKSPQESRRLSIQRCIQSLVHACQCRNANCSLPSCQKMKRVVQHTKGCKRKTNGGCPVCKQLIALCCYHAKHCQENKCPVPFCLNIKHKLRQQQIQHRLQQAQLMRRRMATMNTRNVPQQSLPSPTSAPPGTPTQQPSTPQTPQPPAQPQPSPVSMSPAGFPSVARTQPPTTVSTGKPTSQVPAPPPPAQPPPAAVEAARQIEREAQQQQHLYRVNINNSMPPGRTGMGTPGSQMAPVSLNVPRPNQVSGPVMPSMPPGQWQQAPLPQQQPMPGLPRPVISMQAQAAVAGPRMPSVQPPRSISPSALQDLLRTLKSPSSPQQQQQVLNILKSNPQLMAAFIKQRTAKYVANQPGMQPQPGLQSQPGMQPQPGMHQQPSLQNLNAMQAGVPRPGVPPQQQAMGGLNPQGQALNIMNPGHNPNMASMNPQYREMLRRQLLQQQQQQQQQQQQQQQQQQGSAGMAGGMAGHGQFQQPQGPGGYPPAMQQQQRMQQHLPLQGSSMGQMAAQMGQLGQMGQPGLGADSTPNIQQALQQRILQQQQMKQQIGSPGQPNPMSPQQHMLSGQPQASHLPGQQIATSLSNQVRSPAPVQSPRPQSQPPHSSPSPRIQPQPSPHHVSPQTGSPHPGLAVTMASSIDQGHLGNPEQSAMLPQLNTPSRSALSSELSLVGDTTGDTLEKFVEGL

[3] = target: Bromodomain-containing protein 3 (Homo sapiens, UniProt Q15059); test: as §1
Sequence of Bromodomain-containing protein 3 (Q15059 whole entry): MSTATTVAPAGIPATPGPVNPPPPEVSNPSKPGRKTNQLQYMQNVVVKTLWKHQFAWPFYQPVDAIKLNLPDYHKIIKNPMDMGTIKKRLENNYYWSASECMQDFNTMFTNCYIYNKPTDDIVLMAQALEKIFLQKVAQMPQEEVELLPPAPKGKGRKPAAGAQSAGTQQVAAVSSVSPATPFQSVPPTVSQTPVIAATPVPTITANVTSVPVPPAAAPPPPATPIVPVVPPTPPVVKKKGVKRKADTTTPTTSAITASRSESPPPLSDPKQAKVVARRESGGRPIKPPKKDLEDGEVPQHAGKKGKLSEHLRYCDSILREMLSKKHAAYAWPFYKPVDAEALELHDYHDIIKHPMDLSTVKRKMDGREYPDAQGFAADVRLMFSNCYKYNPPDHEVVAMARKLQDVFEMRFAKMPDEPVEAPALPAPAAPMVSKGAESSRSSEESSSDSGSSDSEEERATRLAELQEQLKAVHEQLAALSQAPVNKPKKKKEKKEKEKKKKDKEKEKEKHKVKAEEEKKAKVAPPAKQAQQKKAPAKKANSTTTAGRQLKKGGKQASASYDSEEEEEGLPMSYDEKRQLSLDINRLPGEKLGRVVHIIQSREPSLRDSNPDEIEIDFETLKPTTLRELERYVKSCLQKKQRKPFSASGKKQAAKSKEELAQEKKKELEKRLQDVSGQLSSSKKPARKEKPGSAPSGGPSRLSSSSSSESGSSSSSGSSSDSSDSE

| IC50 [3] [nM] | SMILES | IC50 [1] [nM] | IC50 [2] [nM] | IC50 (CREB-binding protein) [nM] |
| --- | --- | --- | --- | --- |
|  | COc1ncccc1-n1nc(C)c2c1C(c1ccc(Cl)cc1)N(c1cc(C)c(=O)n(C)c1)C2=O (stereo unspecified) | 78 | 86 | 4000 |
| 62 | CCOc1ncccc1-n1nc(C)c2c1C(c1ccc(Cl)cc1)N(c1cc(C)c(=O)n(C)c1)C2=O (stereo unspecified) |  | 79 | 3100 |

From ChEMBL document CHEMBL5725537, “Pyrazolo-pyrrolidin-4-one derivatives and their use in the treatment of disease” (2017)
